19 compounds from US9062033B2, “Chemical compounds” (Rottapharm Biotech S.r.l., priority 2011, dated 2015) can be followed below.

One test concerns the target T1, human OX1 receptors (Homo sapiens, UniProt O43613).
T1 construct: expressed in transfected cells; host or cells: CHO cells
T1 sequence (O43613 1-425): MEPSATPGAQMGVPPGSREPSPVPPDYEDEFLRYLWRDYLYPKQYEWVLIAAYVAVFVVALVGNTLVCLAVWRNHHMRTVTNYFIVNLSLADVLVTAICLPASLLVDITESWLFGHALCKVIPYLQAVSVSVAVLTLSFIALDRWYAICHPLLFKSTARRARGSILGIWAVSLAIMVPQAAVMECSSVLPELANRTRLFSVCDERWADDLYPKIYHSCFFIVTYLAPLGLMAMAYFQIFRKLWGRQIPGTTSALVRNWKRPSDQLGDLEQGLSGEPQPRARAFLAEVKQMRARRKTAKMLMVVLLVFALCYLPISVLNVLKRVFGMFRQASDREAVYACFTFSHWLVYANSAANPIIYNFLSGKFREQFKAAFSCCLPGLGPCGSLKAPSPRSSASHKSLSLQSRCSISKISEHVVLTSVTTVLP
The test can be described thus: Antagonistic activity against human OX1 receptor, [Ca2+]i fluorimetry (Fluo-4NW) in transfected CHO cells activated with orexin-A. The class given is cell-based. The settings on record: for Kb: CHO cells transfected with human recombinant OX1, orexin-A 3 nM, pKb = co-logarithm of apparent dissociation constant, modified Cheng Prusoff. Here is the method:
(§1) In a typical experiment, the antagonistic activity against human OX1 and OX2 receptors is determined by using CHO e HEK-293 cells transfected with human recombinant OX1 and OX2 receptors respectively, seeded at density of 2 and 3×10^4 cells/well respectively in a 96 fluorimetry well plate. Thus the plate was loaded with the calcium dye (Fluo-4NW/probenecid in HBSS, Hepes 20 mM, pH 7.4; Invitrogen) at 37° C. for 60 min. Afterward the temperature was equilibrated at 22° C. for 15 min and the [Ca2+]i measured directly on the plate by using a fluorescent plate reader (CellLux Perkin Elmer).
(§2) Invention compounds were dissolved in DMSO, diluted in HBSS (DMSO, 0.3% final) and added to the wells. After 5 min CHO cells were activated with orexin-A, 3 nM while HEK-293 cells were activated with orexin-B, 10 nM.
(§3) The compounds, dissolved in DMSO and diluted in the medium (DMSO, 0.3% final), have been analysed in the 1 nM-1 μM concentration range (every concentration in duplicate). The antagonistic activity has been expressed as pKb (co-logarithm of the apparent dissociation constant calculated by using the modified Cheng Prusoff equation).
(§4) The results are expressed as percent of control specific […] response ((measured specific response/control specific agonist response)×100) obtained in the presence of the test compounds.
(§5) The IC50 values (concentration causing a half-maximal inhibition of the control specific agonist response) were determinated by non-linear regression analysis of the concentration curves generated with mean replicate values using hill equation curve fitting. The IC50 values are obtained by the arithmetical mean of at least two experiments. Compounds of the following example tested according to this example gave pKbs as follows: […]

Another test has as its target T2, human OX2 receptors (Homo sapiens, UniProt O43614).
T2 construct: expressed in transfected cells; host or cells: HEK-293 cells
T2 sequence (O43614 1-444): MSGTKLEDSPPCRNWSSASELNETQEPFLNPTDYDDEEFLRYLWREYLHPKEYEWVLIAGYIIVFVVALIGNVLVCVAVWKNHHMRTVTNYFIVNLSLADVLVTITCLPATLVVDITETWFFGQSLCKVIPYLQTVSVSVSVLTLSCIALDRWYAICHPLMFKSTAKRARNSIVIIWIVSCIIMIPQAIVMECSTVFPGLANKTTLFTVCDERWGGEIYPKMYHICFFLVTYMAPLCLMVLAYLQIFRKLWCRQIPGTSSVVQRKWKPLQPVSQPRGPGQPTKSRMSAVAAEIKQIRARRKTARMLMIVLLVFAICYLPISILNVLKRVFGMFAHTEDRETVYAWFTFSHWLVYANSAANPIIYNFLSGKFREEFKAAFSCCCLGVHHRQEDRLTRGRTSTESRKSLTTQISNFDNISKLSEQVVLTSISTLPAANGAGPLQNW
The test can be described thus: Antagonistic activity against human OX2 receptor, [Ca2+]i fluorimetry (Fluo-4NW) in transfected HEK-293 cells activated with orexin-B. Type of test: cell-based. Here is the method:
as §1, §2, §3, §4, §5

Setting [1] is: HEK-293 cells transfected with human recombinant OX2, orexin-B 10 nM, pKb = co-logarithm of apparent dissociation constant, modified Cheng Prusoff.
Setting [2] is: comparison table with compound of WO2011006960.

Read-outs that look alike come from different tables or passages of the source. A value given as a limit tells only on which side of the number the result lay.

In the case of `O=C(c1cc(Br)ccc1-c1ncccn1)N1CC2(CC2)C[C@H]1CNc1ccc(C(F)(F)F)cn1` [Compound 1e, (S)-(5-bromo-2-(pyrimidin-2-yl)phenyl)(6-(((5-(trifluoromethyl)pyridin-2-yl)amino)methyl)-5-azaspiro[2.4]heptan-5-yl)methanone], the Kb at human OX1 receptors is 0.00316 µM; at human OX2 receptors (setting [1]) it was 0.02 µM.

With `Cc1cc(C)nc(NC[C@@H]2CC3(CC3)CN2C(=O)c2nc(C)sc2-c2ccccc2)n1` [Compound 2f, (S)-(6-(((4,6-dimethylpyrimidin-2-yl)amino)methyl)-5-azaspiro[2.4]heptan-5-yl)(2-methyl-5-phenylthiazol-4-yl)methanone], the Kb on human OX1 receptors is 0.0316 µM; on human OX2 receptors (setting [1]) it was 0.00251 µM.

Turning to `Cc1ccc(-c2ncccn2)c(C(=O)N2CC3(CC3)C[C@H]2CNc2nccc3ncccc23)n1` [Compound 3p, (S)-(6-(((1,6-naphthyridin-5-yl)amino)methyl)-5-azaspiro[2.4]heptan-5-yl)(6-methyl-3-(pyrimidin-2-yl)pyridin-2-yl)methanone], the Kb on human OX1 receptors was 0.126 µM; at human OX2 receptors (setting [1]) it was 0.0251 µM.

Consider `Cc1ccc(OCc2ccc(F)cc2F)c(C(=O)N2CC3(CC3)C[C@H]2CNc2ccc(C(F)(F)F)cn2)n1` [Compound 3n, (S)-(3-((2,4-difluorobenzyl)oxy)-6-methylpyridin-2-yl)(6-(((5-(trifluoromethyl)pyridin-2-yl)amino)methyl)-5-azaspiro[2.4]heptan-5-yl)methanone], for which the Kb on human OX1 receptors and at human OX2 receptors (setting [1]) was 0.0794 µM each time.

In the case of `Cc1ccc(-c2ncccn2)c(C(=O)N2CC3(CC3)C[C@H]2CNc2ccc(Cl)cn2)c1` [Example 51 of WO2011006960, reference compound], the Kb at human OX2 receptors (comparison table with compound of WO2011006960, read-out: pKb OX2 (converted)) is more than 10 µM.

On to `Cc1ccc(-c2ccccc2)c(C(=O)N2CC3(CC3)C[C@H]2CNc2ncc(C(F)(F)F)cc2F)n1` [Compound 3e, (S)-(6-(((3-fluoro-5-(trifluoromethyl)pyridin-2-yl)amino)methyl)-5-azaspiro[2.4]heptan-5-yl)(6-methyl-3-phenylpyridin-2-yl)methanone], for which the figures for the Kb on human OX1 receptors and at human OX2 receptors (setting [1]) were 0.00398 µM and 0.00794 µM, respectively.

For `Cc1nc(C(=O)N2CC3(CC3)C[C@H]2CNc2nc3ccc(Cl)cc3s2)c(-c2ccccc2)s1` [Compound 2i, (S)-(6-(((6-chlorobenzo[d]thiazol-2-yl)amino)methyl)-5-azaspiro[2.4]heptan-5-yl)(2-methyl-5-phenylthiazol-4-yl)methanone], the Kb at human OX1 receptors was 0.0126 µM; on human OX2 receptors (setting [1]) it was 0.0316 µM.

For the compound `Cc1ccc(-c2ncccn2)c(C(=O)N2CC3(CC3)C[C@H]2CNc2ncc(C(F)(F)F)cc2Cl)n1` [Compound 3g, (S)-(6-(((3-chloro-5-(trifluoromethyl)pyridin-2-yl)amino)methyl)-5-azaspiro[2.4]heptan-5-yl)(6-methyl-3-(pyrimidin-2-yl)pyridin-2-yl)methanone], the Kb at human OX1 receptors is 0.00501 µM; on human OX2 receptors (setting [1]), 0.01 µM.

Consider `O=C(c1cc(Cl)ccc1-c1ncccn1)N1CC2(CC2)C[C@H]1CNc1cc(Cl)c(C(F)(F)F)cn1` [Compound 1v, (S)-(5-chloro-2-(pyrimidin-2-yl)phenyl)(6-(((4-chloro-5-(trifluoromethyl)pyridin-2-yl)amino)methyl)-5-azaspiro[2.4]heptan-5-yl)methanone], for which the figures for the Kb at human OX1 receptors and on human OX2 receptors (setting [1]) were 0.00631 µM and 0.01 µM, respectively.

Take `Cc1ccc(-c2ncccn2)c(C(=O)N2CC3(CC3)C[C@H]2CNc2cc(C(F)(F)F)c(Cl)cn2)c1` [Compound 1r, (S)-(6-(((5-chloro-4-(trifluoromethyl)pyridin-2-yl)amino)methyl)-5-azaspiro[2.4]heptan-5-yl)(5-methyl-2-(pyrimidin-2-yl)phenyl)methanone]: the results for the Kb at human OX1 receptors and at human OX2 receptors (setting [1]) were 0.00631 µM and 0.01 µM, respectively.

For the compound `Cc1ccc(-c2ncccn2)c(C(=O)N2CC3(CC3)C[C@H]2CNc2cc(C(F)(F)F)ccn2)c1` [Compound 1n, (S)-(5-methyl-2-(pyrimidin-2-yl)phenyl)(6-(((4-(trifluoromethyl)pyridin-2-yl)amino)methyl)-5-azaspiro[2.4]heptan-5-yl)methanone], the Kb at human OX1 receptors is 0.0501 µM; at human OX2 receptors (setting [1]), 0.0158 µM. The “pKb OX1” value at human OX1 receptors (setting [2]) turned out to be 7.3. Besides, the “pKb OX2” value on human OX2 receptors (setting [2]) was determined as 7.8.

Take `O=C(c1c(F)cccc1-c1ncccn1)N1CC2(CC2)C[C@H]1CNc1ncc(C(F)(F)F)cc1F` [Compound 1g, (S)-(6-(((3-fluoro-5-(trifluoromethyl)pyridin-2-yl)amino)methyl)-5-azaspiro[2.4]heptan-5-yl)(2-fluoro-6-(pyrimidin-2-yl)phenyl)methanone]: the Kb was 0.00126 µM on human OX1 receptors and 0.0398 µM at human OX2 receptors (setting [1]).

In the case of `O=C(c1nc(C2CC2)ccc1-c1ccccc1)N1CC2(CC2)C[C@H]1CNc1ccc(C(F)(F)F)cn1` [Compound 3r, (S)-(6-cyclopropyl-3-phenylpyridin-2-yl)(6-(((5-(trifluoromethyl)pyridin-2-yl)amino)methyl)-5-azaspiro[2.4]heptan-5-yl)methanone], the figures for the Kb on human OX1 receptors and on human OX2 receptors (setting [1]) were 0.00251 µM and 0.0126 µM, respectively.

Regarding `Cc1ccc(-c2cccnc2)c(C(=O)N2CC3(CC3)C[C@H]2CNc2ccc(C(F)(F)F)cn2)n1` [Compound E6, (S)-(6-methyl-[3,3′-bipyridin]-2-yl)(6-(((5-(trifluoromethyl)pyridin-2-yl)amino)methyl)-5-azaspiro[2.4]heptan-5-yl)methanone], the Kb on human OX1 receptors is 0.1 µM; at human OX2 receptors (setting [1]) it was 0.2 µM.

With `Cc1ccc(OCc2cc(F)cc(F)c2)c(C(=O)N2CC3(CC3)C[C@H]2CNc2ccc(C(F)(F)F)cn2)n1` [Compound 3o, (S)-(3-((3,5-difluorobenzyl)oxy)-6-methylpyridin-2-yl)(6-(((5-(trifluoromethyl)pyridin-2-yl)amino)methyl)-5-azaspiro[2.4]heptan-5-yl)methanone], the Kb at human OX1 receptors is 0.00631 µM; at human OX2 receptors (setting [1]), 0.00501 µM.

As for `Cc1ccc(-c2ncccn2)c(C(=O)N2CC3(CC3)C[C@H]2CNc2ncc(C(F)(F)F)cc2F)n1` [Compound 3d, (S)-(6-(((3-fluoro-5-(trifluoromethyl)pyridin-2-yl)amino)methyl)-5-azaspiro[2.4]heptan-5-yl)(6-methyl-3-(pyrimidin-2-yl)pyridin-2-yl)methanone], the Kb at human OX1 receptors is 0.00398 µM; at human OX2 receptors (setting [1]), 0.01 µM.

As for `Cc1cccc(NC[C@@H]2CC3(CC3)CN2C(=O)c2nc(C)sc2-c2ccccc2)n1` [Compound 2c, (S)-(2-methyl-5-phenylthiazol-4-yl)(6-(((6-methylpyridin-2-yl)amino)methyl)-5-azaspiro[2.4]heptan-5-yl)methanone], the Kb at human OX1 receptors is 0.0501 µM; at human OX2 receptors (setting [1]), 0.0251 µM.

For `Cc1cnn(-c2ccc(C)nc2C(=O)N2CC3(CC3)C[C@H]2CNc2ccc(C(F)(F)F)cn2)c1` [Compound 3i, (S)-(6-methyl-3-(4-methyl-1H-pyrazol-1-yl)pyridin-2-yl)(6-(((5-(trifluoromethyl)pyridin-2-yl)amino)-methyl)-5-azaspiro[2.4]heptan-5-yl)methanone], the Kb is 0.00126 µM on human OX1 receptors and 0.00501 µM on human OX2 receptors (setting [1]).

On to `Cc1ccc(-n2ccc(C)n2)c(C(=O)N2CC3(CC3)C[C@H]2CNc2ccc(C(F)(F)F)cn2)n1` [Compound 3j, (S)-(6-methyl-3-(3-methyl-1H-pyrazol-1-yl)pyridin-2-yl)(6-(((5-(trifluoromethyl)pyridin-2-yl)amino)-methyl)-5-azaspiro[2.4]heptan-5-yl)methanone], for which the Kb was 0.00126 µM on human OX1 receptors and 0.0158 µM at human OX2 receptors (setting [1]).
